Reference: paper PMC10244169, “Psychedelics promote plasticity by directly binding to BDNF receptor TrkB” (Nature Neuroscience, 2023)

What was measured:
TrkB (WT) dimerization = target: T1, TrkB (WT) dimerization (Rattus norvegicus, UniProt Q63604); assay: Split-luciferase PCA of TrkB dimerization in N2a cells; type: cell-based; settings: for TrkB dimerization: WT TrkB, N2a cells, 1 nM to 1 µM; for TrkB dimerization (PCA), group mean (vehicle = 100): WT; for Group mean (Mean 2; Control:Vehicle = 100), fig 4f: n=8; for Group mean (Mean 2; Vehicle:vehicle = 100), fig 4d: n=20; for TrkB dimerization time course, group mean (time 0 = 100): TRKB.wt; for Group mean (Mean 2; Vehicle:Vehicle = 100), fig 4e: n=48
T1 construct: expressed in transfected cells; host or cells: N2a
T1 sequence (Q63604 32-821): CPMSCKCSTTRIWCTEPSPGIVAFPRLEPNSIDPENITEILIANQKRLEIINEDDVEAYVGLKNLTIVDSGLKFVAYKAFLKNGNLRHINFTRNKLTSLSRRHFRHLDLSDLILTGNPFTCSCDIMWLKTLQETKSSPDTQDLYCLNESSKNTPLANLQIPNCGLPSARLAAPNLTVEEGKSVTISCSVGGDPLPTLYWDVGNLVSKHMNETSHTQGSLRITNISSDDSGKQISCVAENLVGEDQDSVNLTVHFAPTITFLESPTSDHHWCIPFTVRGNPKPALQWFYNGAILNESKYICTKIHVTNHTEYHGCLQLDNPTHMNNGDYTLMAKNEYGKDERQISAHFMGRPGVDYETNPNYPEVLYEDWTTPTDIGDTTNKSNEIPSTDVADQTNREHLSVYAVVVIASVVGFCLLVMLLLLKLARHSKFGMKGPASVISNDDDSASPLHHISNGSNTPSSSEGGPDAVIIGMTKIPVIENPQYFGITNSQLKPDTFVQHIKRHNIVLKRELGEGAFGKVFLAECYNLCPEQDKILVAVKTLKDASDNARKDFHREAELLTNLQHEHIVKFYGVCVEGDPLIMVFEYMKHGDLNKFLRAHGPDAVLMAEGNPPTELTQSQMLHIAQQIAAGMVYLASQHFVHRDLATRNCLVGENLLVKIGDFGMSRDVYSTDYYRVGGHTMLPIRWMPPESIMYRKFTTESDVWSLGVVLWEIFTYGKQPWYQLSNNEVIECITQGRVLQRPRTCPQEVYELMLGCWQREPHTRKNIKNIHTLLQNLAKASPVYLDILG
T1 sequence (Q63604 32-821): as above
Description: Ketanserin, M100907 and TRKB.FC were added to the media 10 min before treatment. The PCA method was performed as previously described[11],[75],[76]. Split humanized Gaussia princeps luciferase (hGLuc) was cloned on the C-terminus of the reporter proteins TrkB (WT and Y433F) and lipid raft Fyn. If the reporter proteins that carry complementary halves of the luciferase interact, the enzyme can refold in its functional conformation and, upon addition of its substrate, produce luminescence proportionally to the amount of reporter proteins interacting at a given time. N2a cells were seeded in 96-well plates with opaque walls and transparent bottom (PerkinElmer, ViewPlate 96). Cells were transfected with Lipofectamine 2000 according to the manufacturer’s instructions 24 h post-plating with the PCA pair plasmids: phGLuc(1C)-TrkB(WT) or the mutant phGLuc(1C)-TrkB(Y433F) and phGLuc(2 C)-TrkB(WT) for the dimerization experiments; phGLuc(1C)-lipid raft Fyn and phGLuc(2C)-TrkB(WT) or phGLuc(2C)-TrkB(Y433F) for the lipid raft localization experiments. Forty-eight hours post transfection, cells were treated (40 min, 37 °C) in phenol red-free Dulbecco’s modified Eagle medium without serum. […] The PCA signal was detected with the substrate for the luciferase, native coelenterazine, which was injected into each well directly in the plate reader at a final concentration of […].

[1] = system: spine density of neuronal cultures; assay: Spinogenesis in mature neuronal cultures (WT and Y433F^+/−); type: cell-based, mouse; parameters: 6d: Mean (spinogenesis, spine density) / 6e: Mean (spinogenesis, spine density): unit not given here; settings: for spine density: cultures from WT mice, 24 h, 100 nM; for 6e: Mean (spinogenesis, spine density): Vehicle:Vehicle mean 7.05
Description: Spinogenesis experiments were performed similarly to previous studies[12],[13] with modifications. […] In a separate set of experiments to study the effects of extracellular BDNF and 5-HT2A activation, cultures were also pretreated for 10 min with TrkB.FC (200 ng ml^−1) or M100907 (100 nM), respectively. TrkB.FC and M100907 remained in the medium for the rest of the experiment. Twenty-four hours later, coverslips were fixed with 4% PFA, washed with PBS, incubated with blocking buffer (0.1% Triton X-100, 0.05% Tween-20, 10% normal donkey serum, 1% BSA and 0.1% gelatin in PBS) for 1 h at room temperature and then overnight with rabbit anti-MAP2 (Invitrogen, PA5-17646; 1:100) primary antibody at 4 °C. After washing with PBS, coverslips were incubated with CF568-conjugated donkey anti-rabbit (Biotium, 20098; 1:500) for 1 h at room temperature. Another round of PBS washes was followed by incubation with Alexa Fluor 647-conjugated phalloidin (Invitrogen, A22287; 1:40) overnight at 4 °C. Next, coverslips were briefly washed in phosphate buffer (PB) and mounted on slides with ProLong Glass Antifade Mountant (Invitrogen, P36982). We used a Zeiss LSM 880 confocal microscope with an AiryScan GaAsP detector equipped with a PlanApochromat 63×/1.4 NA objective. We used the BP 495–550 + LP 570 AiryScan filter and Zen Black in super-resolution mode for image acquisition. Pinhole size was adapted accordingly, and frame size was set to optimal. Sensors were set to continuous adjustment across the imaging sessions to ensure optimal sensor alignment and signal detection. Raw data were processed into AiryScan images with the autofilter mode on using Zen Blue. Finally, image analysis was performed in ImageJ by experimenters blinded for treatment and genotype. Spines were quantified in 15-µm-long dendrite sections.

TrkB = target: T2, TrkB (Rattus norvegicus, UniProt Q63604); assay: biochemical; type: binding; settings: for Bmax (best-fit, 1b) / h (best-fit, 1b): competition with ^3H-LSD
T2 construct: expressed in transfected cells; host or cells: HEK293T
T2 sequence (Q63604 32-821): as above

[2] = Y433F+/- neurons, vehicle mean 6.55
[3] = Y433F+/-:vehicle minus Y433F+/-:treatment
[4] = ext fig 1f, competition curve, n=5

With `CN(C)CCc1c[nH]c2cccc(O)c12` [PSI, psilocin] the TrkB dimerization (TrkB (WT) dimerization) was “fast and long-lasting increase in dimerization”, the “TrkB dimerization (PCA), group mean (vehicle = 100)” value (from here on “TrkB dimerization (PCA), group mean”) (TrkB (WT) dimerization; 1nM) was 146 and the “TrkB dimerization (PCA), group mean” value (TrkB (WT) dimerization; 10nM) was 133.7. The “TrkB dimerization (PCA), group mean” value (TrkB (WT) dimerization; 100nM) was 150.6, the “TrkB dimerization (PCA), group mean” value (TrkB (WT) dimerization; 1uM) was 166.1 and the “6d: Mean (spinogenesis, spine density)” value ([1]; WT neurons, vehicle mean 5.7) was 10.5. For the same compound, the “6d: Mean Diff. (vehicle vs. treatment), Bonferroni's multiple comparisons test” value (shortened to “6d: Mean Diff. (vehicle vs. treatment)”) ([1]; WT:vehicle minus WT:treatment) was -4.8, the “6d: Mean (spinogenesis, spine density)” value [1, 2] was 7 and the “6d: Mean Diff. (vehicle vs. treatment)” value [1, 3] was -0.45. For the same compound, the spine density [1] was “increase spine density”, the Ki (TrkB) was 6.73 ± 3.05 nM and the “Bmax (best-fit, 1b)” value (TrkB) was 100.9. The “h (best-fit, 1b)” value (TrkB) was -0.492 and the “affinity to TrkB relative to other antidepressants (fluoxetine, ketamine)” value (TrkB; higher than other antidepressants) was 1,000 fold.
`CCN(CC)C(=O)C1C=C2c3cccc4[nH]cc(c34)CC2N(C)C1` (stereo not drawn) [LSD, lysergic acid diethylamide] was tested, and the “potentiation of BDNF effect on TrkB dimerization” value (TrkB (WT) dimerization; BDNF 0.1 ng ml^−1) was “potentiates the effects of very low concentrations of BDNF”, the “Group mean (Mean 2; Control:Vehicle = 100), fig 4f” value (TrkB (WT) dimerization; LSD 1nM with BDNF 0.1ng/ml) was 198.9 and the “Group mean (Mean 2; Vehicle:vehicle = 100), fig 4d” value (shortened to “Group mean … fig 4d”) (TrkB (WT) dimerization; LSD 1 nM with M100907) was 146.3. The “Group mean (Mean 2; Control:Vehicle = 100), fig 4f” value (TrkB (WT) dimerization; LSD 1nM, Vehicle (no BDNF)) was 131.4, the “Group mean … fig 4d” value (TrkB (WT) dimerization; LSD 1 nM, Vehicle (no M100907)) was 129.7 and the “Group mean … fig 4d” value (TrkB (WT) dimerization; LSD 10 nM with M100907) was 148. For the same compound, the “Group mean … fig 4d” value (TrkB (WT) dimerization; LSD 10 nM, Vehicle (no M100907)) was 146.6, the “Group mean … fig 4d” value (TrkB (WT) dimerization; LSD 100 nM with M100907) was 153.7 and the “Group mean … fig 4d” value (TrkB (WT) dimerization; LSD 100 nM, Vehicle (no M100907)) was 151.3. For the same compound, the “Group mean … fig 4d” value (TrkB (WT) dimerization; LSD 1 µM with M100907) was 177.5, the “Group mean … fig 4d” value (TrkB (WT) dimerization; LSD 1 µM, Vehicle (no M100907)) was 148.9 and the “TrkB dimerization time course, group mean (time 0 = 100)” value (shortened to “TrkB dimerization time course”) (TrkB (WT) dimerization; time 15) was 195. The “TrkB dimerization time course” value (TrkB (WT) dimerization; time 60) was 250.1, the “TrkB dimerization time course” value (TrkB (WT) dimerization; time 120) was 213 and the “TrkB dimerization time course” value (TrkB (WT) dimerization; time 240) was 184.6. The “TrkB dimerization time course” value (TrkB (WT) dimerization; time 480) was 101, the TrkB dimerization (TrkB (WT) dimerization) was “fast and long-lasting increase in dimerization” and the “TrkB dimerization (PCA), group mean” value (TrkB (WT) dimerization; 1nM) was 126.2. The “TrkB dimerization (PCA), group mean” value (TrkB (WT) dimerization; 10nM) was 166.6, the “TrkB dimerization (PCA), group mean” value (TrkB (WT) dimerization; 100nM) was 191.5 and the “TrkB dimerization (PCA), group mean” value (TrkB (WT) dimerization; 1uM) was 201.7. For the same compound, the “Group mean (Mean 2; Vehicle:Vehicle = 100), fig 4e” value (TrkB (WT) dimerization; treatment alone (other factor Vehicle)) was 209.8, the “Group mean (Mean 2; Vehicle:Vehicle = 100), fig 4e” value (TrkB (WT) dimerization; with TrkB.FC) was 119.5 and the “6e: Mean Diff. (Vehicle:Vehicle vs. treatment), Bonferroni's multiple comparisons test” value ([1]; LSD together with M100907) was -7.65. The “6e: Mean (spinogenesis, spine density)” value ([1]; LSD together with M100907) was 14.7, the “6e: Mean Diff. (Vehicle:Vehicle vs. treatment), Bonferroni's multiple comparisons test” value ([1]; LSD together with TrkB.FC) was 0.25 and the “6e: Mean (spinogenesis, spine density)” value ([1]; LSD together with TrkB.FC) was 6.8. For the same compound, the “6d: Mean (spinogenesis, spine density)” value ([1]; WT neurons, vehicle mean 5.7) was 13, the “6d: Mean Diff. (vehicle vs. treatment)” value ([1]; WT:vehicle minus WT:treatment) was -7.3 and the “6d: Mean (spinogenesis, spine density)” value [1, 2] was 7.5. The “6d: Mean Diff. (vehicle vs. treatment)” value [1, 3] was -0.95, the spine density [1] was “increase spine density” and the “6e: Mean Diff. (Vehicle:Vehicle vs. treatment), Bonferroni's multiple comparisons test” value ([1]; substance alone (with vehicle)) was -7.6. The “6e: Mean (spinogenesis, spine density)” value ([1]; substance alone (with vehicle)) was 14.65, the Ki (TrkB) was 3.38 ± 1.39 nM and the “Bmax (best-fit, 1b)” value (TrkB) was 104.9. For the same compound, the “h (best-fit, 1b)” value (TrkB) was -0.5005.
With `COc1cccc([C@H](O)C2CCN(CCc3ccc(F)cc3)CC2)c1OC` [M100907] the “Group mean … fig 4d” value (TrkB (WT) dimerization; M100907 alone (M100907:vehicle)) was 100, the “effect of pretreatment on LSD- and BDNF-induced TrkB dimerization” value (TrkB (WT) dimerization; ketanserin 100 nM, M100907 100 nM or TrkB.FC 200 ng ml^−1, 10 min before) was “fails to prevent the effects of LSD and BDNF on TrkB dimerization” and the “effect of pretreatment on spinogenic effect of LSD” value ([1]; TrkB.FC 200 ng ml^−1 or M100907 100 nM) was “not M100907 prevented the spinogenic effect of LSD”. The “6e: Mean Diff. (Vehicle:Vehicle vs. treatment), Bonferroni's multiple comparisons test” value ([1]; substance alone (with vehicle)) was -2.8, the “6e: Mean (spinogenesis, spine density)” value ([1]; substance alone (with vehicle)) was 9.85 and the “displacement of ^3H-LSD from TrkB” value (TrkB; 1 nM to 10 µM of drug) was “fail to displace LSD binding to TrkB”. The “Fit status, specific binding with Hill slope” value (TrkB; ext fig 1f) was “Ambiguous”, the “Bmax (specific binding with Hill slope, best-fit)” value (TrkB; [4]) was 94.18 and the “h (Hill slope, best-fit)” value (TrkB; [4]) was ~ 1.901.
